Results on two compounds are retold here after ChEMBL document CHEMBL6103654, “Design, Biological Characterization, and Discovery of Capromorelin Derivatives as Oral Growth Hormone Secretagogue Receptor Type 1a Agonist for the Treatment of Growth Hormone Deficiency” (J Med Chem, 2025).

In data set [1] the target is Growth hormone secretagogue receptor type 1 (Rattus norvegicus, UniProt O08725). Description: Agonist activity at rat GHSR expressed in CHO cells incubated for 60 min by FLIPR assay. The class given is functional, cell-based.
Data set [2] deals with CHO. Description: Agonist activity at human GHSR expressed in CHO cells at maximum concentration incubated for 60 min by FLIPR assay relative to control. The conditions noted are these: filed as agonist. The class given is cell-based.
Data set [3] deals with Rattus norvegicus. Description: Induction of growth hormone level in Juvenile Sprague-Dawley rat blood at 0.1 mg/kg, po administered as single dose measured immediately by ELISA method (reference value: 28.5+/-8.7 ng/mL). Format: functional.
The test system of data set [4] is CHO. Nature of the data set: Agonist activity at dog GHSR expressed in CHO cells at maximum concentration incubated for 60 min by FLIPR assay relative to control. Format: cell-based. To be noted: Canis lupus familiaris, filed as agonist.
The test system of data set [5] is Rattus norvegicus. Nature of the data set: Induction of growth hormone level in adult Sprague-Dawley rat blood at 0.5 mg/kg, po administered as single dose measured immediately by ELISA method (reference value: 12.6+/-4.4 ng/mL). Format: functional.
Data set [6] can be described thus: Volume of distribution in male Sprague-Dawley rat at 1 mg/kg, iv administered as single dose measured after 4 hrs. Format: ADME, organism-based. The conditions noted are these: in vivo.
Data set [7] has as its system Rattus norvegicus. Description: Induction of growth hormone level in adult Sprague-Dawley rat blood at 0.5 mg/kg, po administered as single dose measured after 10 mins by ELISA method (reference value: 13.7+/-7.2 ng/mL). Format: functional.
In data set [8] the test system is Rattus norvegicus. Description: Induction of growth hormone level in Juvenile Sprague-Dawley rat blood at 0.1 mg/kg, po administered as single dose measured after 2 hrs by ELISA method (reference value: 26.5+/-7.3 ng/mL). The class given is functional.
Data set [9] is described as follows: Elimination half life in male Sprague-Dawley rat at 1 mg/kg, iv administered as single dose measured after 4 hrs. To be noted: in vivo, read-out: beta t1/2 (converted). The class given is ADME, organism-based.
Data set [10] in a line: Oral bioavailability in male Sprague-Dawley rat at 2 mg/kg administered as single dose measured after 4 hrs. The conditions noted are these: in vivo. The class given is ADME, organism-based.
Data set [11] can be described thus: Tmax in male Sprague-Dawley rat at 2 mg/kg, po administered as single dose measured after 4 hrs. Format: ADME, organism-based. To be noted: in vivo.
For data set [12], the system named is Rattus norvegicus. Nature of the data set: Induction of growth hormone level in Juvenile Sprague-Dawley rat blood by measuring AUC(0 to 40 mins) at 0.1 mg/kg, po administered as single dose by ELISA method (reference value: 20.2+/-4.3 ng/mL). The class given is functional, organism-based. To be noted: time 4.0 hrs.
Data set [13] in a line: Clearance in male Sprague-Dawley rat plasma at 1 mg/kg, iv administered as single dose measured after 4 hrs. The class given is ADME, organism-based.
Data set [14] in a line: Agonist activity at human GHSR expressed in CHO cells incubated for 60 min by FLIPR assay. The class given is cell-based. To be noted: 1 h.
In data set [15] the test system is Rattus norvegicus. Description: Induction of growth hormone level in Juvenile Sprague-Dawley rat blood at 0.1 mg/kg, po administered as single dose measured after 40 mins by ELISA method (reference value: 40.1+/-11.0 ng/mL). The class given is functional.
Data set [16] can be described thus: Elimination half life in male Sprague-Dawley rat at 2 mg/kg, po administered as single dose measured after 4 hrs. The class given is ADME, organism-based. The conditions noted are these: in vivo, read-out: beta t1/2 (converted).
The test system of data set [17] is CHO. Description: Agonist activity at monkey GHSR expressed in CHO cells at maximum concentration incubated for 60 min by FLIPR assay relative to control. The class given is cell-based. The conditions noted are these: Macaca mulatta, filed as agonist.
Data set [18] concerns Rattus norvegicus. Nature of the data set: Induction of growth hormone level in Juvenile Sprague-Dawley rat blood at 0.1 mg/kg, po administered as single dose measured after 4 hrs by ELISA method (reference value: 32.5+/-4.5 ng/mL). Format: functional.
The target of data set [19] is Growth hormone secretagogue receptor type 1 (Rattus norvegicus) (UniProt O08725). Description: Agonist activity at rat GHSR expressed in CHO cells at maximum concentration incubated for 60 min by FLIPR assay relative to control. The class given is functional, cell-based. To be noted: filed as agonist.
Data set [20] relates to Rattus norvegicus. Nature of the data set: Induction of growth hormone level in adult Sprague-Dawley rat blood at 0.5 mg/kg, po administered as single dose measured after 40 mins by ELISA method (reference value: 14.4+/-6.9 ng/mL). Format: functional.
Data set [21] is described as follows: Agonist activity at dog GHSR expressed in CHO cells incubated for 60 min by FLIPR assay. The conditions noted are these: 1 h. Format: cell-based.
The subject of data set [22] is Rattus norvegicus. Nature of the data set: Induction of growth hormone level in Juvenile Sprague-Dawley rat blood at 0.1 mg/kg, po administered as single dose measured after 1 hr by ELISA method (reference value: 45.2+/-12.5 ng/mL). Format: functional.
For data set [23], the system named is Rattus norvegicus. Nature of the data set: Induction of growth hormone level in adult Sprague-Dawley rat blood by measuring AUC(0 to 40 mins) at 0.5 mg/kg, po administered as single dose by ELISA method (reference value: 7.0+/-1.7 ng/mL). Format: functional, organism-based.
In data set [24] the test system is Rattus norvegicus. Description: Induction of growth hormone level in adult Sprague-Dawley rat blood at 0.5 mg/kg, po administered as single dose measured after 20 mins by ELISA method (reference value: 4.9+/-1.1 ng/mL). Format: functional.
Data set [25] concerns Rattus norvegicus. Description: Induction of growth hormone level in Juvenile Sprague-Dawley rat blood at 0.1 mg/kg, po administered as single dose measured after 10 mins by ELISA method (reference value: 23.2+/-5.6 ng/mL). Format: functional.
Data set [26] deals with Rattus norvegicus. Nature of the data set: Induction of growth hormone level in Juvenile Sprague-Dawley rat blood at 0.1 mg/kg, po administered as single dose measured after 20 mins by ELISA method (reference value: 29.1+/-8.6 ng/mL). Format: functional.
The nature of data set [27]: AUC in male Sprague-Dawley rat at 2 mg/kg, po administered as single dose measured after 4 hrs. The conditions noted are these: in vivo. Format: ADME, organism-based.
A short description of data set [28]: Cmax in male Sprague-Dawley rat at 2 mg/kg, po administered as single dose measured after 4 hrs. The conditions noted are these: in vivo. Format: ADME, organism-based.
Data set [29] can be described thus: Agonist activity at monkey GHSR expressed in CHO cells incubated for 60 min by FLIPR assay. The class given is cell-based. To be noted: Macaca mulatta, 1 h.
For data set [30], the system named is Rattus norvegicus. Description: Induction of growth hormone level in Juvenile Sprague-Dawley rat blood at 10 mg/kg, po administered as single dose measured after 4 hrs by ELISA method (reference value: 32.5+/-4.5 ng/mL). Format: functional.
The test system of data set [31] is Rattus norvegicus. Nature of the data set: Induction of growth hormone level in Juvenile Sprague-Dawley rat blood at 10 mg/kg, po administered as single dose measured after 2 hrs by ELISA method (reference value: 26.5+/-7.3 ng/mL). The class given is functional.
Data set [32] relates to Rattus norvegicus. Description: Induction of growth hormone level in adult Sprague-Dawley rat blood at 10 mg/kg, po administered as single dose measured immediately by ELISA method (reference value: 12.6+/-4.4 ng/mL). The class given is functional.
Data set [33] relates to Rattus norvegicus. Description: Induction of growth hormone level in Juvenile Sprague-Dawley rat blood at 10 mg/kg, po administered as single dose measured after 40 mins by ELISA method (reference value: 40.1+/-11.0 ng/mL). Format: functional.
For data set [34], the system named is Rattus norvegicus. Description: Induction of growth hormone level in Juvenile Sprague-Dawley rat blood by measuring AUC(0 to 40 mins) at 10 mg/kg, po administered as single dose by ELISA method (reference value: 20.2+/-4.3 ng/mL). Format: functional, organism-based.
Data set [35] concerns Rattus norvegicus. Description: Induction of growth hormone level in Juvenile Sprague-Dawley rat blood at 10 mg/kg, po administered as single dose measured after 1 hr by ELISA method (reference value: 45.2+/-12.5 ng/mL). The class given is functional.
The subject of data set [36] is Rattus norvegicus. Nature of the data set: Induction of growth hormone level in Juvenile Sprague-Dawley rat blood at 10 mg/kg, po administered as single dose measured after 20 mins by ELISA method (reference value: 29.1+/-8.6 ng/mL). Format: functional.
Data set [37] relates to Rattus norvegicus. Nature of the data set: Induction of growth hormone level in adult Sprague-Dawley rat blood by measuring AUC(0 to 40 mins) at 10 mg/kg, po administered as single dose by ELISA method (reference value: 7.0+/-1.7 ng/mL). The class given is functional, organism-based.
Data set [38] deals with Rattus norvegicus. Nature of the data set: Induction of growth hormone level in adult Sprague-Dawley rat blood at 10 mg/kg, po administered as single dose measured after 10 mins by ELISA method (reference value: 13.7+/-7.2 ng/mL). The class given is functional.
Data set [39] has as its system Rattus norvegicus. Nature of the data set: Induction of growth hormone level in adult Sprague-Dawley rat blood at 10 mg/kg, po administered as single dose measured after 20 mins by ELISA method (reference value: 4.9+/-1.1 ng/mL). The class given is functional.
Data set [40] has as its system Rattus norvegicus. Nature of the data set: Induction of growth hormone level in Juvenile Sprague-Dawley rat blood at 10 mg/kg, po administered as single dose measured after 10 mins by ELISA method (reference value: 23.2+/-5.6 ng/mL). The class given is functional.
The subject of data set [41] is Rattus norvegicus. Nature of the data set: Induction of growth hormone level in adult Sprague-Dawley rat blood at 10 mg/kg, po administered as single dose measured after 40 mins by ELISA method (reference value: 14.4+/-6.9 ng/mL). Format: functional.
Data set [42] concerns Rattus norvegicus. Description: Induction of growth hormone level in Juvenile Sprague-Dawley rat blood at 10 mg/kg, po administered as single dose measured immediately by ELISA method (reference value: 28.5+/-8.7 ng/mL). The class given is functional.

Sequence of Growth hormone secretagogue receptor type 1 (Rattus norvegicus) (O08725 whole entry): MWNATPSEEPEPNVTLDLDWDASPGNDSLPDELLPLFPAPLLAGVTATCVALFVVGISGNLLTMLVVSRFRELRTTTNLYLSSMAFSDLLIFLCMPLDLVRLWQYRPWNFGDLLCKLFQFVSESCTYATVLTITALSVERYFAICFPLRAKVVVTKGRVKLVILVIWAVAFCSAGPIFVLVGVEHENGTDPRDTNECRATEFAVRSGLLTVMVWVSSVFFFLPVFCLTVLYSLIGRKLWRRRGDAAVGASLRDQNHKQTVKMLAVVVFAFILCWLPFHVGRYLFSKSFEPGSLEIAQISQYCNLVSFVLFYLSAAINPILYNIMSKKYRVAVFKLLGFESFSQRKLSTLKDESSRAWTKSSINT
Sequence of Growth hormone secretagogue receptor type 1 (O08725 whole entry): as above

Regarding `CC(C)(N)C(=O)N[C@H](COCc1ccccc1)C(=O)N1CCC2=NN(C3CC3)C(=O)[C@]2(Cc2ccccn2)C1`, the EC50 in data set [1] was found to be 0.021 nM; in [14], 0.8 nM; in [21], 0.092 nM; in [29], 0.068 nM. Moreover, the Activity was 123% in the data set with CHO [2]; 65.8 ng/mL with Rattus norvegicus [3]; 87.4% in the data set with CHO [4]; 17.2 ng/mL with Rattus norvegicus [5]; 178.4 ng/mL in the data set on Rattus norvegicus [7]; 34.5 ng/mL with Rattus norvegicus [8]. Also, the Activity was found to be 91.8 ng/mL with Rattus norvegicus [15]; 104% in the data set with CHO [17]; 61.1 ng/mL with Rattus norvegicus [18]; 114% in data set [19]; 41.9 ng/mL with Rattus norvegicus [20]; 54.5 ng/mL in the data set with Rattus norvegicus [22]. Moreover, the Activity worked out at 81.8 ng/mL in the data set with Rattus norvegicus [24], 168.5 ng/mL in the data set with Rattus norvegicus [25] and 220.5 ng/mL with Rattus norvegicus [26]. The compound further yielded a volume of distribution (Vd) in data set [6] of 3.3 L/kg. In addition, the half-life in [9] was 48 min; in data set [16], 72.6 min. In data set [10], the bioavailability came to 26.2%. In addition, the Tmax in data set [11] came to 15 min. The AUC in the data set with Rattus norvegicus [12] was 104 ng·h/mL; in the data set with Rattus norvegicus [23], 58.6 ng·h/mL. In data set [13], this compound gave a clearance of 48 mL/min/kg. Moreover, the AUC at 4 h in [27] turned out to be 186 ng·h/mL. Besides, the Cmax in data set [28] worked out at 139 ng/mL.
For `CC(C)(N)C(=O)N[C@H](COCc1ccccc1)C(=O)N1CCC2(CC1)CN(S(C)(=O)=O)c1ccccc12` [IBUTAMOREN], the Activity in the data set on Rattus norvegicus [30] came to 61.3 ng/mL; with Rattus norvegicus [31], 52.4 ng/mL; with Rattus norvegicus [32], 15.4 ng/mL; in the data set with Rattus norvegicus [33], 76.3 ng/mL; in the data set on Rattus norvegicus [35], 76.2 ng/mL; in the data set on Rattus norvegicus [36], 227.8 ng/mL. The Activity with Rattus norvegicus [38] was 133.9 ng/mL; with Rattus norvegicus [39] it was 71.3 ng/mL; with Rattus norvegicus [40] it was 290.9 ng/mL; in the data set with Rattus norvegicus [41] it was 25 ng/mL; with Rattus norvegicus [42] it was 58.1 ng/mL. In addition, the AUC came to 123 ng·h/mL with Rattus norvegicus [34] and 45.6 ng·h/mL in the data set on Rattus norvegicus [37].
